According to the supplement of paper PMC7840683:
± gives the standard deviation of the averaged measurements.

System: HepaRG
Assay: LDH release cytotoxicity, % of total lysis control; higher = more cytotoxic
Conditions: 48 h
Procedure, shortened: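 Duplicate wells of single-lot HepaRG cells, grown on collagen I-coated 96-well plates, received eight-point half-log series of test chemicals with 100 µM as the top concentration. Exposure lasted 48 h in serum-free induction medium with 0.5% DMSO, while total lysis wells received 0.1% Triton X. Resorufin fluorescence (CytoTox-ONE, Tecan Safire) was used to quantify LDH leaked into 50 µL of spent medium. Values for percent cytotoxicity were normalized to on-plate vehicle and total lysis controls and averaged across the duplicates.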

CCC(=O)Nc1ccc(Cl)c(Cl)c1 [Propanil]
LDH release cytotoxicity (0.03162 µM): -0.963 ± 0.057% | LDH release cytotoxicity (0.1 µM): -0.318 ± 1.1% | LDH release cytotoxicity (0.3162278 µM): -0.815 ± 0.19% | LDH release cytotoxicity (1 µM): -1.73 ± 0.56% | LDH release cytotoxicity (3.16228 µM): -0.844 ± 0.53% | LDH release cytotoxicity (10 µM): 0.163 ± 0.67% | LDH release cytotoxicity (31.6228 µM): 0.666 ± 0.14% | LDH release cytotoxicity (100 µM): 4.33 ± 0.28%

CCC(=C(CC)c1ccc(O)cc1)c1ccc(O)cc1 [Diethylstilbestrol]
LDH release cytotoxicity (0.031623 µM): -1.08 ± 0.25% | LDH release cytotoxicity (0.1 µM): -0.295 ± 1.4% | LDH release cytotoxicity (0.316228 µM): -1.31 ± 0.079% | LDH release cytotoxicity (1 µM): -2.18 ± 0.15% | LDH release cytotoxicity (3.16228 µM): -2.64 ± 1.2% | LDH release cytotoxicity (10 µM): -2.24 ± 0.36% | LDH release cytotoxicity (31.6228 µM): -0.817 ± 0.032% | LDH release cytotoxicity (100 µM): 0.74 ± 1.1%

COC(=O)c1ccc(C(=O)OC)cc1 [Dimethyl terephthalate]
LDH release cytotoxicity (0.03162 µM): 0.0234 ± 1% | LDH release cytotoxicity (0.1 µM): -0.391 ± 1.6% | LDH release cytotoxicity (0.3162278 µM): -1.12 ± 0.61% | LDH release cytotoxicity (1 µM): -0.654 ± 0.052% | LDH release cytotoxicity (3.16228 µM): -0.533 ± 0.33% | LDH release cytotoxicity (10 µM): 0.0948 ± 0.34% | LDH release cytotoxicity (31.6228 µM): 0.365 ± 0.88% | LDH release cytotoxicity (100 µM): 2.87 ± 0.72%

O=C(N[C@H]1CN2CCC1CC2)c1cc2ccoc2cn1 [(R)-N-(Quinuclidin-3-yl)furo(2,3-C)pyridine-5-carboxamide]
LDH release cytotoxicity (0.03162 µM): -0.025 ± 0.11% | LDH release cytotoxicity (0.1 µM): 1.01 ± 0.6% | LDH release cytotoxicity (0.3162278 µM): 0.216 ± 0.84% | LDH release cytotoxicity (1 µM): 0.437 ± 0.39% | LDH release cytotoxicity (3.16228 µM): 1.24 ± 0.3% | LDH release cytotoxicity (10 µM): 0.814 ± 0.5% | LDH release cytotoxicity (31.6228 µM): 1.28 ± 0.19% | LDH release cytotoxicity (100 µM): 1.77 ± 0.61%

NCCOCCOCCN [2,2'-[Ethane-1,2-diylbis(oxy)]diethanamine]
LDH release cytotoxicity (0.03162 µM): -0.945 ± 0.74% | LDH release cytotoxicity (0.1 µM): -1.12 ± 0.47% | LDH release cytotoxicity (0.3162278 µM): -0.214 ± 0.033% | LDH release cytotoxicity (1 µM): 0.303 ± 0.8% | LDH release cytotoxicity (3.16228 µM): 2.6 ± 0.91% | LDH release cytotoxicity (10 µM): 2.46 ± 0.46% | LDH release cytotoxicity (31.6228 µM): 1.93 ± 0.86% | LDH release cytotoxicity (100 µM): 4 ± 0.68%

C=C(C)C(N)=O [Methacrylamide]
LDH release cytotoxicity (0.03162 µM): 0.244 ± 0.55% | LDH release cytotoxicity (0.1 µM): -1.11 ± 0.47% | LDH release cytotoxicity (0.3162278 µM): -1.39 ± 0.69% | LDH release cytotoxicity (1 µM): -1.09 ± 0.82% | LDH release cytotoxicity (3.16228 µM): -1.32 ± 1.9% | LDH release cytotoxicity (10 µM): -0.285 ± 1.1% | LDH release cytotoxicity (31.6228 µM): -0.444 ± 0.94% | LDH release cytotoxicity (100 µM): 2.64 ± 0.98%

COP(=S)(OC)Oc1ccc([N+](=O)[O-])c(C)c1 [Fenitrothion]
LDH release cytotoxicity (0.03162 µM): -1.98 ± 1.1% | LDH release cytotoxicity (0.1 µM): -2.13 ± 1.2% | LDH release cytotoxicity (0.3162278 µM): -0.603 ± 0.67% | LDH release cytotoxicity (1 µM): -1.11 ± 0.74% | LDH release cytotoxicity (3.16228 µM): -0.939 ± 0.39% | LDH release cytotoxicity (10 µM): -0.576 ± 0.69% | LDH release cytotoxicity (31.6228 µM): -0.104 ± 0.3% | LDH release cytotoxicity (100 µM): 0.45 ± 0.39%

OC1CCC(C2CCCCC2)CC1 (configuration not stated) [4-Cyclohexylcyclohexanol]
LDH release cytotoxicity (0.03162 µM): -1.67 ± 0.32% | LDH release cytotoxicity (0.1 µM): -1.27 ± 1.5% | LDH release cytotoxicity (0.3162278 µM): -1.62 ± 1.1% | LDH release cytotoxicity (1 µM): -2.39 ± 0.036% | LDH release cytotoxicity (3.16228 µM): -2.08 ± 1.7% | LDH release cytotoxicity (10 µM): -1.58 ± 0.49% | LDH release cytotoxicity (31.6228 µM): -1.22 ± 0.35% | LDH release cytotoxicity (100 µM): 0.00977 ± 0.63%

C[C@](N)(Cc1ccc(O)c(O)c1)C(=O)O [Methyldopa sesquihydrate]
LDH release cytotoxicity (0.03162 µM): -0.769 ± 0.75% | LDH release cytotoxicity (0.1 µM): -1.62 ± 1.9% | LDH release cytotoxicity (0.3162278 µM): -0.864 ± 0.56% | LDH release cytotoxicity (1 µM): -1.87 ± 0.72% | LDH release cytotoxicity (3.16228 µM): -1.57 ± 0.67% | LDH release cytotoxicity (10 µM): -0.513 ± 0.67% | LDH release cytotoxicity (31.6228 µM): -2.01 ± 0.42% | LDH release cytotoxicity (100 µM): -2.91 ± 0.43%

CCOC(=O)c1ccc(O)cc1 [Ethylparaben]
LDH release cytotoxicity (0.03162 µM): -0.474 ± 0.19% | LDH release cytotoxicity (0.1 µM): -1.24 ± 0.2% | LDH release cytotoxicity (0.3162278 µM): -1.05 ± 0.26% | LDH release cytotoxicity (1 µM): -1.23 ± 0.42% | LDH release cytotoxicity (3.16228 µM): -0.851 ± 0.3% | LDH release cytotoxicity (10 µM): -1.05 ± 0.62% | LDH release cytotoxicity (31.6228 µM): -0.271 ± 1.2% | LDH release cytotoxicity (100 µM): 0.163 ± 0.13%

CC(C)(C)c1ccccc1 [tert-Butylbenzene]
LDH release cytotoxicity (0.03162 µM): -3.19 ± 0.23% | LDH release cytotoxicity (0.1 µM): -2.41 ± 1.1% | LDH release cytotoxicity (0.3162278 µM): -1.88 ± 0.86% | LDH release cytotoxicity (1 µM): -2.09 ± 0.96% | LDH release cytotoxicity (3.16228 µM): -1.34 ± 0.44% | LDH release cytotoxicity (10 µM): -1.35 ± 0.2% | LDH release cytotoxicity (31.6228 µM): -0.245 ± 1.8% | LDH release cytotoxicity (100 µM): 0.779 ± 2.1%

N#Cc1c(Cl)cccc1Cl [Dichlobenil]
LDH release cytotoxicity (0.03162 µM): 0.00697 ± 0.72% | LDH release cytotoxicity (0.1 µM): -0.347 ± 1.1% | LDH release cytotoxicity (0.3162278 µM): -1.05 ± 0.013% | LDH release cytotoxicity (1 µM): -1.65 ± 0.47% | LDH release cytotoxicity (3.16228 µM): 0.43 ± 1.9% | LDH release cytotoxicity (10 µM): 0.582 ± 0.39% | LDH release cytotoxicity (31.6228 µM): 1.87 ± 0.054% | LDH release cytotoxicity (100 µM): 1.99 ± 1.2%

Nc1cc2c3c(c1)C(c1ccccc1)=NC(NC(=O)c1cccnc1)C(=O)N3CC2 (configuration not stated) [CI-1044]
LDH release cytotoxicity (0.03162 µM): -1.32 ± 0.016% | LDH release cytotoxicity (0.1 µM): -0.234 ± 0.4% | LDH release cytotoxicity (0.3162278 µM): -1.37 ± 0.23% | LDH release cytotoxicity (1 µM): -0.0936 ± 0.47% | LDH release cytotoxicity (3.16228 µM): -0.301 ± 0.14% | LDH release cytotoxicity (10 µM): 0.515 ± 1.5% | LDH release cytotoxicity (31.6228 µM): 0.683 ± 0.68% | LDH release cytotoxicity (100 µM): 0.815 ± 1.6%

C1=CCCC=CCCC=CCC1 [1,5,9-Cyclododecatriene]
LDH release cytotoxicity (0.032888 µM): 0.325 ± 0.27% | LDH release cytotoxicity (0.104 µM): -1.08 ± 0.16% | LDH release cytotoxicity (0.328877 µM): -2.13 ± 1.5% | LDH release cytotoxicity (1.04 µM): -1.59 ± 0.41% | LDH release cytotoxicity (3.28877 µM): -1.09 ± 0.33% | LDH release cytotoxicity (10.4 µM): -1.273 ± 0.012% | LDH release cytotoxicity (32.8877 µM): -1.4 ± 0.08% | LDH release cytotoxicity (104 µM): 0.633 ± 0.4%

c1ccc(C(OC2CCCN(CCc3ccc4c(c3)OCO4)C2)c2ccccc2)cc1 (configuration not stated) [Zamifenacin]
LDH release cytotoxicity (0.03162 µM): -1.023 ± 0.0016% | LDH release cytotoxicity (0.1 µM): -1.51 ± 0.059% | LDH release cytotoxicity (0.3162278 µM): -1.31 ± 0.77% | LDH release cytotoxicity (1 µM): -1.54 ± 0.46% | LDH release cytotoxicity (3.16228 µM): -1.68 ± 1.4% | LDH release cytotoxicity (10 µM): -1.11 ± 0.43% | LDH release cytotoxicity (31.6228 µM): 2 ± 0.19% | LDH release cytotoxicity (100 µM): 51.7 ± 1.1%

O=C(O)c1nc(Cl)ccc1Cl [Clopyralid-olamine]
LDH release cytotoxicity (0.03162 µM): -1.75 ± 0.021% | LDH release cytotoxicity (0.1 µM): -1.37 ± 0.22% | LDH release cytotoxicity (0.3162278 µM): -2.18 ± 0.81% | LDH release cytotoxicity (1 µM): -3.35 ± 1.5% | LDH release cytotoxicity (3.16228 µM): -1.65 ± 0.032% | LDH release cytotoxicity (10 µM): -1.04 ± 0.99% | LDH release cytotoxicity (31.6228 µM): -1.18 ± 0.77% | LDH release cytotoxicity (100 µM): 0.521 ± 0.14%

FC(F)C(F)(F)OCC(Cn1cncn1)c1ccc(Cl)cc1Cl (configuration not stated) [Tetraconazole]
LDH release cytotoxicity (0.0314647 µM): -0.665 ± 0.72% | LDH release cytotoxicity (0.0995 µM): -2.23 ± 0.2% | LDH release cytotoxicity (0.3146466 µM): -1.54 ± 0.36% | LDH release cytotoxicity (0.995 µM): -2.38 ± 0.84% | LDH release cytotoxicity (3.14647 µM): -2.48 ± 0.21% | LDH release cytotoxicity (9.95 µM): -2.1 ± 0.41% | LDH release cytotoxicity (31.4647 µM): 1.5 ± 0.2% | LDH release cytotoxicity (99.5 µM): 52.5 ± 4.9%

CC(C)=CC1C(C(=O)OCc2coc(Cc3ccccc3)c2)C1(C)C (configuration not stated) [Resmethrin]
LDH release cytotoxicity (0.03162 µM): -0.985 ± 0.042% | LDH release cytotoxicity (0.1 µM): -0.737 ± 0.31% | LDH release cytotoxicity (0.3162278 µM): -0.651 ± 0.22% | LDH release cytotoxicity (1 µM): -1.31 ± 0.019% | LDH release cytotoxicity (3.16228 µM): -0.881 ± 0.065% | LDH release cytotoxicity (10 µM): -0.19 ± 0.24% | LDH release cytotoxicity (31.6228 µM): -0.451 ± 0.58% | LDH release cytotoxicity (100 µM): 0.209 ± 1.3%

O=S(=O)(O)C(F)(F)C(F)(F)C(F)(F)C(F)(F)C(F)(F)C(F)(F)C(F)(F)C(F)(F)F [Potassium perfluorooctanesulfonate]
LDH release cytotoxicity (0.03036 µM): -2.82 ± 0.99% | LDH release cytotoxicity (0.096 µM): -1.72 ± 1.2% | LDH release cytotoxicity (0.303579 µM): -2.71 ± 0.49% | LDH release cytotoxicity (0.96 µM): -2.314 ± 0.0065% | LDH release cytotoxicity (3.03579 µM): -2.44 ± 0.43% | LDH release cytotoxicity (9.6 µM): -1.36 ± 0.89% | LDH release cytotoxicity (30.3579 µM): -1.03 ± 0.88% | LDH release cytotoxicity (96 µM): 27.2 ± 1.1%
